Data set [1] in a line: Metabolic stability in human liver microsomes assessed as extraction ratio at 1 uM. In kind it is ADME, Microsome. (In general: Liver microsomes are vesicles of endoplasmic reticulum, rich in cytochrome P450 enzymes.)
The nature of data set [2]: Solubility in ethanol-PS80 citrate buffer at pH 3.5 by HPLC analysis. The data set is classed as physicochemical.
For data set [3], the system named is Mus musculus. Nature of the data set: Inhibition of chymotrypsin-like activity of 20S proteasome in BALB/c mouse adrenal gland at 20 mg/kg, po after 1 hr. In kind it is functional. The arrangement: scale not given: the % may be the effect or the level left.
A short description of data set [4]: Cytotoxicity against multidrug resistance transporter expressing doxorubicin resistant human MESSA cells assessed as cell viability after 72 hrs by CellTiter-Glo luminescent assay. In kind it is functional, cell-based. Particulars: MES-SA. For orientation: ATP-based viability assays read luminescence as a measure of living cells.
The test system of data set [5] is Mus musculus. Nature of the data set: Inhibition of chymotrypsin-like activity of 20S proteasome in BALB/c mouse adrenal gland 40 mg/kg, po after 1 hr. On the set-up: scale not given: the % may be the effect or the level left. The data set is classed as functional.
For data set [6], the species on record is Homo sapiens. Kind of data set: Ratio of Kinact to Ki for chymotrypsin-like activity of human 26S proteasome by spectrophotometry. On the set-up: unit not given here.
The nature of data set [7]: Inhibition of chymotrypsin-like activity of 20S proteasome in human MOLT4 cells after 1 hr by […]. Particulars: MOLT-4, 1 h. The data set is classed as cell-based.
Data set [8] can be described thus: Metabolic stability in mouse liver microsomes assessed as extraction ratio at 1 uM. The data set is classed as ADME, Microsome.
Data set [9] can be described thus: Cytotoxicity against human MESSA cells assessed as cell viability after 72 hrs by CellTiter-Glo luminescent assay. The data set is classed as functional, cell-based. Particulars: MES-SA.
The nature of data set [10]: Inhibition of chymotrypsin-like activity of human 20S proteasome by spectrofluorimetry.
A short description of data set [11]: Chemical stability in simulated intestinal fluid assessed as compound remaining at 4 uM after 15 mins. The data set is classed as physicochemical. Particulars: read-out: Stability.
Data set [12] concerns Mus musculus. Nature of the data set: Inhibition of chymotrypsin-like activity of 20S proteasome in BALB/c mouse adrenal gland at 10 mg/kg, po after 1 hr. In kind it is functional. On the set-up: scale not given: the % may be the effect or the level left.
Data set [13] deals with RL. Nature of the data set: Antitumor activity against human RL cells xenografted in BNX mouse assessed as time to achieve significant decrease in tumor volume at 20 mg/kg, po administered as weekly qdx2 schedule. In kind it is functional, organism-based. On the set-up: dose 20 mg/kg. A general note: In xenograft studies the graft and the host belong to different species.

The nature of data set [14]: Toxicity in po dosed BALB/c mouse xenografted with mouse CT26 cells assessed as maximum tolerated dose. Particulars: in vivo. In kind it is organism-based.
In data set [15] the target is T1, Proteasome subunit beta type-8 (Homo sapiens, UniProt P28062).
T1 sequence (P28062 whole entry): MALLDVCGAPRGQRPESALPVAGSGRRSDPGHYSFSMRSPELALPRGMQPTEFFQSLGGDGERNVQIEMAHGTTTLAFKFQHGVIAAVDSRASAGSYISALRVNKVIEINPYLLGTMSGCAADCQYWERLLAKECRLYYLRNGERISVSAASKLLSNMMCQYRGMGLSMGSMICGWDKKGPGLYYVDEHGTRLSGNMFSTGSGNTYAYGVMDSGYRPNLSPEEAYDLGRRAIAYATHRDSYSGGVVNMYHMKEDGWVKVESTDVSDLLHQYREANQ
Description: Inhibition of chymotrypsin-like activity of LMP7 immunoproteasome by proteasome active site ELISA

Data set [16] can be described thus: Toxicity in po dosed BNX mouse xenografted with human RL cells assessed as maximum tolerated dose. In kind it is organism-based. Particulars: in vivo.
The nature of data set [17]: Inhibition of chymotrypsin-like activity of human 20S proteasome beta 5 subunit by proteasome active site ELISA.
Data set [18] concerns CT26. Nature of the data set: Antitumor activity against mouse CT26 cells xenografted in BALB/c mouse assessed as time to achieve significant decrease in tumor volume at 20 mg/kg, po administered 3 days post tumor challenge in weekly qdx2 schedule. On the set-up: dose 20 mg/kg. In kind it is functional, organism-based.
A short description of data set [19]: Chemical stability in simulated gastric fluid assessed as compound remaining at 4 uM after 15 mins. In kind it is physicochemical. Particulars: read-out: Stability.
The subject of data set [20] is Mus musculus. Nature of the data set: Inhibition of chymotrypsin-like activity of 20S proteasome in BALB/c mouse blood at 40 mg/kg, po after 1 hr. On the set-up: scale not given: the % may be the effect or the level left. The data set is classed as functional.
Data set [21] has as its system Mus musculus. Kind of data set: Inhibition of chymotrypsin-like activity of 20S proteasome in BALB/c mouse liver at 40 mg/kg, po after 1 hr. The data set is classed as functional. The arrangement: scale not given: the % may be the effect or the level left.
The species entered for data set [22] is Homo sapiens. Nature of the data set: Selectivity for chymotrypsin-like activity over trypsin-like activity of human 20S proteasome.
The test system of data set [23] is CT26. Kind of data set: Antitumor activity against mouse CT26 cells xenografted in BALB/c mouse assessed as time to achieve significant decrease in tumor volume at 5 mg/kg, iv administered on day 3 post tumor challenge for weekly qdx2 schedule. The data set is classed as functional.
Data set [24] in a line: Toxicity in iv dosed BALB/c mouse xenografted with mouse CT26 cells assessed as maximum tolerated dose. Particulars: in vivo. The data set is classed as organism-based.
In data set [25] the test system is RL. Kind of data set: Antitumor activity against human RL cells xenografted BNX mouse assessed as time to achieve significant decrease in tumor volume at 5 mg/kg, iv administered as weekly qdx2 schedule. In kind it is functional.
The species entered for data set [26] is Homo sapiens. Nature of the data set: Selectivity for chymotrypsin-like activity over caspase-like activity of human 20S proteasome.

≈ marks a conversion by molar mass, not a printed value. Calls of active or inactive are those of the source. The rule behind the calls is not given here.

By solubility is commonly meant the concentration that dissolves in the medium under given conditions. Broadly, the IC50 is the point on the concentration scale where inhibition reaches its midpoint. For the compound `COC[C@H](NC(=O)c1cc(C)on1)C(=O)N[C@@H](Cc1ccccc1)C(=O)N[C@@H](CC(C)C)C(=O)[C@@]1(C)CO1`, the values for the hepatic extraction ratio at 1 µM in data set [1] and in data set [8] were 0.91 dimensionless ratio and 0.96 dimensionless ratio, respectively. In data set [2], this compound registered a solubility of 750 µg/mL (≈ 1.42 mM). The Activity in data set [3] came to 33%; in data set [5] it was 9%. Further, the half-maximal inhibitory concentration (IC50) in [4] worked out at 75 nM; in [7] it was 36 nM; in data set [9] it was 40 nM; in data set [10] it was 9.3 nM. In addition, the Ratio in [6] amounted to 58600. In addition, in data set [11], the remaining at 0.25 h, 4 µM was 90%.

As a reminder, the MTD is the highest dose tested that stayed within the study's limit of toxicity. The compound `CCOc1cc(C(=O)N[C@@H](COC)C(=O)N[C@@H](COC)C(=O)N[C@@H](Cc2ccccc2)C(=O)[C@@]2(C)CO2)no1` returned an Activity in [12] of 3%. The hepatic extraction ratio at 1 µM in [1] and in data set [8] was 0.77 dimensionless ratio in each case. Further, the result in data set [13] and in data set [18] was inactive. The MTD in data set [14] and in data set [16] was 20 mg/kg throughout. For the same compound, the IC50 in [4] stood at 54 nM; in [15], 5 nM; in data set [17], 3.7 nM; in [7], 3 nM; in data set [9], 4.3 nM; in data set [10], 1.4 nM. Also, the remaining at 0.25 h, 4 µM in data set [11] was 85%.

For the compound `CC(C)C[C@H](NC(=O)CN1CCOCC1)C(=O)N[C@@H](Cc1ccccc1)C(=O)N[C@@H](CC(C)C)C(=O)[C@@]1(C)CO1`, the remaining at 0.25 h, 4 µM was 90% in data set [19] and 45% in data set [11]. Besides, the IC50 in data set [4] amounted to 308 nM; in data set [7] it was 45 nM; in [9] it was 35 nM; in data set [10] it was 57 nM. In addition, the Activity in [5] is listed as 82%; in data set [20], 37%; in data set [21], 22%. In addition, the Ratio in data set [6] is 7900. For the same compound, the hepatic extraction ratio at 1 µM in data set [8] (read-out: ERH) turned out to be 0.95.

Turning to `COC[C@H](NC(=O)c1cc(C)on1)C(=O)N[C@@H](COC)C(=O)N[C@@H](CC(C)C)C(=O)[C@@]1(C)CO1`, the Activity in data set [12] turned out to be 21%; in [3], 9%. Further, the hepatic extraction ratio at 1 µM turned out to be 0.54 dimensionless ratio in [1] and 0.67 dimensionless ratio in data set [8]. Further, in data set [2], the solubility turned out to be 5880 µg/mL (≈ 12.2 mM). Also, the IC50 stood at 145 nM in [4]; 238 nM in [15]; 17 nM in [17]; 48 nM in [7]; 22 nM in data set [9]; 11 nM in [10]. Also, in [6], the Ratio stood at 31800. Also, the remaining at 0.25 h, 4 µM in [11] was 70%.

For the compound `CC(C)C[C@H](NC(=O)[C@H](CCc1ccccc1)NC(=O)CN1CCOCC1)C(=O)N[C@@H](Cc1ccccc1)C(=O)N[C@@H](CC(C)C)C(=O)[C@@]1(C)CO1` [CARFILZOMIB], the results for the remaining at 0.25 h, 4 µM in [19] and in data set [11] were 15% and under 5%, respectively. Besides, the fold change (FC) in data set [22] and in data set [26] was over 100 each time. In addition, the IC50 in data set [4] worked out at 413 nM; in data set [17], 5.2 nM; in [7], 5.1 nM; in data set [9], 18 nM; in data set [10], 5.7 nM. The Activity worked out at 26 days in [23]; 83% in [5]; 77% in [20]; 35 days in data set [25]; 109% in [21]. Moreover, in data set [24], the MTD was found to be 5 mg/kg.

Values taken from ChEMBL document CHEMBL1138457, “Design and synthesis of an orally bioavailable and selective peptide epoxyketone proteasome inhibitor (PR-047)” (J Med Chem, 2009).
